PubChem BioAssay AID328 (DTP/NCI, 2004)
Several values for one entry are separate records, joined by “and”; a condition that tells them apart may be missing. Equal values may be shown once. Toxic doses and inconclusive results are not listed.

Tested on: BDF1 mice, P388 leukemia ip, median survival T/C
Test: NCI In Vivo Anticancer Drug Screen. Data for tumor model P388 Leukemia (intraperitoneal) in B6D2F1 (BDF1) mice
Conditions: endpoint: median survival time, higher = longer survival
Method in brief: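 T/C = treated-group survival ÷ vehicle-control survival; tumour transplanted into mice before dosing.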

With `c1ccc(C[n+]2cccc3ccccc32)cc1` the T/C (dose: 6.25 mg/kg/injection, schedule: Q01DX009 (ip), vehicle: Klucel (hydroxypropylcellulose) (HPC)) was 109 % of control, the T/C (dose: 6.25 mg/kg/injection, schedule: Q04DX003 (ip), vehicle: saline) was 100 % of control and the T/C (dose: 12.5 mg/kg/injection, schedule: Q01DX009 (ip), vehicle: Klucel (hydroxypropylcellulose) (HPC)) was 90 % of control. The T/C (dose: 12.5 mg/kg/injection, schedule: Q04DX003 (ip), vehicle: saline) was 100 % of control, the T/C (dose: 25.0 mg/kg/injection, schedule: Q01DX009 (ip), vehicle: Klucel (hydroxypropylcellulose) (HPC)) was 90 % of control and the T/C (dose: 25.0 mg/kg/injection, schedule: Q04DX003 (ip), vehicle: saline) was 104 % of control.
`O=NN(CCCl)C(=O)Nc1cc(NC(=O)N(CCCl)N=O)cc(C(=O)O)c1` was tested, and the T/C (dose: 0.03 mg/kg/injection, schedule: Q04DX003 (ip), vehicle: saline with Tween-80) was 116 % of control, the T/C (dose: 0.06 mg/kg/injection, schedule: Q04DX003 (ip), vehicle: saline with Tween-80) was 120 % of control and 122 % of control and the T/C (dose: 0.5 mg/kg/injection, schedule: Q04DX003 (ip), vehicle: saline with Tween-80) was 150 % of control. For the same compound, the T/C (dose: 0.6 mg/kg/injection, schedule: Q04DX003 (ip), vehicle: saline with Tween-80) was 163 % of control, the T/C (dose: 1.0 mg/kg/injection, schedule: Q04DX003 (ip), vehicle: saline with Tween-80) was 170 % of control and the T/C (dose: 1.8 mg/kg/injection, schedule: Q04DX003 (ip), vehicle: saline with Tween-80) was 195 % of control. For the same compound, the T/C (dose: 2.0 mg/kg/injection, schedule: Q04DX003 (ip), vehicle: saline with Tween-80) was 200 % of control, the T/C (dose: 2.3 mg/kg/injection, schedule: Q04DX003 (ip), vehicle: saline with Tween-80) was 215 % of control and the T/C (dose: 2.5 mg/kg/injection, schedule: Q04DX003 (ip), vehicle: saline with Tween-80) was 195 % of control. The T/C (dose: 3.5 mg/kg/injection, schedule: Q04DX003 (ip), vehicle: saline with Tween-80) was 265 % of control, the T/C (dose: 3.7 mg/kg/injection, schedule: Q04DX003 (ip), vehicle: saline with Tween-80) was 186 % of control and the T/C (dose: 5.5 mg/kg/injection, schedule: Q04DX003 (ip), vehicle: saline with Tween-80) was 235 % of control. For the same compound, the T/C (dose: 6.0 mg/kg/injection, schedule: Q04DX003 (ip), vehicle: saline with Tween-80) was 222 % of control, the T/C (dose: 8.5 mg/kg/injection, schedule: Q04DX003 (ip), vehicle: saline with Tween-80) was 275 % of control and the T/C (dose: 13.0 mg/kg/injection, schedule: Q04DX003 (ip), vehicle: saline with Tween-80) was 250 % of control and 300 % of control. The T/C (dose: 18.0 mg/kg/injection, schedule: Q04DX003 (ip), vehicle: saline with Tween-80) was 272 % of control, the T/C (dose: 20.0 mg/kg/injection, schedule: Q04DX003 (ip), vehicle: saline with Tween-80) was 272 % of control and 300 % of control and 218 % of control and the T/C (dose: 30.0 mg/kg/injection, schedule: Q04DX003 (ip), vehicle: saline with Tween-80) was 235 % of control and 272 % of control. For the same compound, the T/C (dose: 45.0 mg/kg/injection, schedule: Q04DX003 (ip), vehicle: saline with Tween-80) was 95 % of control.
In the case of `CCOC(CN(Cc1ccc(OC)c(OCc2ccccc2)c1)S(=O)(=O)c1ccc(C)cc1)OCC`, the T/C (dose: 25.0 mg/kg/injection, schedule: Q01DX009 (ip), vehicle: water) is reported as 89 % of control, the T/C (dose: 50.0 mg/kg/injection, schedule: Q01DX009 (ip), vehicle: water) is reported as 99 % of control and the T/C (dose: 100.0 mg/kg/injection, schedule: Q01DX009 (ip), vehicle: water) is reported as 92 % of control. The T/C (dose: 200.0 mg/kg/injection, schedule: Q01DX009 (ip), vehicle: water) was 112 % of control and the T/C (dose: 400.0 mg/kg/injection, schedule: Q01DX009 (ip), vehicle: water) was 99 % of control.
With `O=C(O)C(/C=N\Nc1ccccc1)=N\Nc1ccccc1` the T/C (dose: 37.5 mg/kg/injection, schedule: Q01DX009 (ip), vehicle: saline with Tween-80) was 110 % of control, the T/C (dose: 75.0 mg/kg/injection, schedule: Q01DX009 (ip), vehicle: saline with Tween-80) was 115 % of control and the T/C (dose: 150.0 mg/kg/injection, schedule: Q01DX009 (ip), vehicle: saline with Tween-80) was 118 % of control.
In the case of `C[NH-].C[NH-].[I][Pt+2][I]`, the T/C (dose: 1.56 mg/kg/injection, schedule: Q04DX003 (ip), vehicle: other) is reported as 120 % of control, the T/C (dose: 3.12 mg/kg/injection, schedule: Q04DX003 (ip), vehicle: other) is reported as 120 % of control and the T/C (dose: 6.25 mg/kg/injection, schedule: Q04DX003 (ip), vehicle: other) is reported as 163 % of control. For the same compound, the T/C (dose: 12.5 mg/kg/injection, schedule: Q04DX003 (ip), vehicle: other) was 163 % of control, the T/C (dose: 50.0 mg/kg/injection, schedule: Q04DX003 (ip), vehicle: other) was 154 % of control and the T/C (dose: 100.0 mg/kg/injection, schedule: Q04DX003 (ip), vehicle: other) was 116 % of control.
With `CC(=O)c1ccc(Oc2ccc(/C(C)=N\N=C(N)N)cc2)cc1` the T/C (dose: 6.25 mg/kg/injection, schedule: Q01DX009 (ip), vehicle: saline) was 111 % of control, the T/C (dose: 12.5 mg/kg/injection, schedule: Q01DX009 (ip), vehicle: saline) was 112 % of control and 117 % of control and the T/C (dose: 16.0 mg/kg/injection, schedule: Q01DX009 (ip), vehicle: saline) was 116 % of control. The T/C (dose: 25.0 mg/kg/injection, schedule: Q01DX009 (ip), vehicle: saline) was 110 % of control.
